Where two headings read alike, the source gives them in different places.
What was measured:
Jily = assay: MTS proliferation assay, Jily; assay type: cell-based; details: 72 h incubation, read-out: MTS proliferation assay IC 50 Jily
Experimental: (§1) Cell lines are cultured in RPMI-1640 tissue culture medium containing either 5% or 10% fetal calf serum, 0.05 mM 2-mercaptoethanol, 2 mM glutamine and penicillin/streptomycin 50 μg/ml (complete medium) (Sigma, Buchs, Switzerland). General growth conditions are 37° C. and 7.5% CO2.
(§2) The assay is performed in 96 well tissue culture plates. The cells (range: 1.5*10^3-10^4) are seeded out in 80 μl complete medium 24 h prior to compound treatment. The test compounds are added in 20 μl complete medium containing max 5% DMSO. The final compound concentrations in the assays are 10 μM, 3 μM, 1 μM and 0.3 μM, respectively. The assay plates are incubated for 72 h at culture conditions. The MTS reagent is prepared according to the manufacturer's protocol (Promega G1111). 20 μl MTS reagent are added to each well, the assay plates are quickly spun and incubated for another 3 h at culture conditions. Subsequently, the plates are shortly shaked and absorption measured with a microplate-reader at 492 nm.

HeLa = assay: MTS proliferation assay, HeLa; assay type: cell-based, human; details: 72 h incubation, read-out: MTS proliferation assay IC 50 HeLa
Method in brief: (§3)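 Human lines, EGFP-transfected or not, grow in RPMI-1640 plus 5% or 10% FCS and 2-mercaptoethanol. They receive test compound for 72 h at final concentrations of 10, 3, 1 and 0.3 μM, and MTS conversion is measured at 492 nm.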

[1] = system: adherent cells or suspension cells; assay: Hoechst 33342 nuclear staining (fraction of apoptotic nuclei); assay type: cell-based; set-up: key: 0 relating to no activity; 1 relating to weak activity comprising less than 70% of the cells; score 2 relating to strong activity comprising more than 70% of the cells
MRC5 = assay: MTS proliferation assay, MRC5; assay type: cell-based; details: MRC5, 72 h incubation; read-out: MTS proliferation assay IC 50 MRC5
Method in brief: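 Seed cells in complete RPMI-1640 medium and allow 24 h attachment. Add compounds to final 10 μM, 3 μM, 1 μM or 0.3 μM and incubate 72 h at 37° C. Add MTS, incubate 3 h more, then measure absorption at 492 nm.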

Jurkat = assay: MTS proliferation assay, Jurkat; assay type: cell-based, human; details: 72 h incubation, read-out: MTS proliferation assay IC 50 Jurkat
Method in brief: as §3

HT1080 = assay: MTS proliferation assay, HT1080; assay type: cell-based, human; details: HT1080, 72 h incubation; read-out: MTS proliferation assay IC 50 HT1080
Experimental: as §1
The following human cell lines (either EGFP transfected or not) are being used: HeLa (ATCC: CCL-2), KB (ATCC: CCL-17), MCF7 (ATCC: HTB-22), SK-BR-3 (ATCC: HTB-30), SK-Mel 1 (ATCC: HTB-67), SK-Mel 28 (ATCC: HTB-72), PC-3 (ATCC: CRL-1435), SW 480 (ATCC: CCL-228), NCl-H460 (ATCC: HTB-177), NCl-H1792 (ATCC: CRL-5895), HT1080 (ATCC: CCL-21), Jurkat (ATCC: TIB-152), Ramos (ATCC: CRL-1596), Raji (ATCC: CCL-86), H9 (ATCC: HTB-176), Hut78 (ATCC: TIB-161), K562 (ATCC: CCL 243), HL-60 (ATCC: CCL 240), U-87MG (ATCC: HTB-14), HepG2 (ATCC: HB-8065), U-2 OS (ATCC: HTB-96), Saos-2 (ATCC: HTB-85), U937 (ATCC: CRL 1593), Hs 578T (ATCC: HTB 126), HBL-100 (ATCC: HTB 124), Molt-4 (ATCC: CRL 1582).
as §2

| SMILES | IC50 (HeLa) [µM] | IC50 (Jily) [µM] | Hoechst 33342 nuclear staining score ([1]; H460, conc 0.01 μm) | Hoechst 33342 nuclear staining score ([1]; H460, conc 0.1 μm) | Hoechst 33342 nuclear staining score ([1]; H460, conc 1 μm) | Hoechst 33342 nuclear staining score ([1]; HeLa, conc 0.01 μm) | Hoechst 33342 nuclear staining score ([1]; HeLa, conc 0.1 μm) | Hoechst 33342 nuclear staining score ([1]; HeLa, conc 1 μm) | Hoechst 33342 nuclear staining score ([1]; Jily, conc 0.01 μm) | Hoechst 33342 nuclear staining score ([1]; Jily, conc 0.1 μm) | Hoechst 33342 nuclear staining score ([1]; Jily, conc 1 μm) | Hoechst 33342 nuclear staining score ([1]; Jurkat, conc 0.01 μm) | Hoechst 33342 nuclear staining score ([1]; Jurkat, conc 0.1 μm) | Hoechst 33342 nuclear staining score ([1]; Jurkat, conc 1 μm) | Hoechst 33342 nuclear staining score ([1]; MRC5, conc 0.01 μm) | Hoechst 33342 nuclear staining score ([1]; MRC5, conc 0.1 μm) | Hoechst 33342 nuclear staining score ([1]; MRC5, conc 1 μm) | Hoechst 33342 nuclear staining score ([1]; PBLs, conc 0.01 μm) | Hoechst 33342 nuclear staining score ([1]; PBLs, conc 0.1 μm) | Hoechst 33342 nuclear staining score ([1]; PBLs, conc 1 μm) | also measured |
| --- | --- | --- | --- | --- | --- | --- | --- | --- | --- | --- | --- | --- | --- | --- | --- | --- | --- | --- | --- | --- | --- |
| Cc1ccc(OCn2c(-c3nonc3NCCC#N)nc3ccccc32)cc1C [Example 10, 4-[1-(3,4-Dimethylphenoxymethyl)-1H-benzimidazol-2-yl]-furazan-3-yl-N-(2-cyanoethyl)-amine] |  | 0.01 to 0.1 | 0 | 1 (1 relating to weak activity comprising less than 70% of the cells) | 2 (score 2 relating to strong activity comprising more than 70% of the cells) | 0 | 0 | 2 (score 2 relating to strong activity comprising more than 70% of the cells) | 0 | 1 (1 relating to weak activity comprising less than 70% of the cells) | 2 (score 2 relating to strong activity comprising more than 70% of the cells) | 0 | 2 (score 2 relating to strong activity comprising more than 70% of the cells) | 2 (score 2 relating to strong activity comprising more than 70% of the cells) | 0 | 0 | 1 (1 relating to weak activity comprising less than 70% of the cells) | 0 | 0 | 0 | IC50 (HeLa; Homo sapiens): 0.1 to 1 µM |
| O=C(Cn1c(-c2nonc2NCCCO)nc2ccccc21)c1ccc(Cl)cc1 [Example 11, 4-[1-(4-Chlorophenacyl)-1H-benzimidazol-2-yl]-furazan-3-yl-N-(3-hydroxypropyl)-amine] |  | 0.01 to 0.1 | 0 | 0 | 2 (score 2 relating to strong activity comprising more than 70% of the cells) | 0 | 1 (1 relating to weak activity comprising less than 70% of the cells) | 2 (score 2 relating to strong activity comprising more than 70% of the cells) | 0 | 2 (score 2 relating to strong activity comprising more than 70% of the cells) | 2 (score 2 relating to strong activity comprising more than 70% of the cells) | 0 | 2 (score 2 relating to strong activity comprising more than 70% of the cells) | 2 (score 2 relating to strong activity comprising more than 70% of the cells) | 0 | 1 (1 relating to weak activity comprising less than 70% of the cells) | 2 (score 2 relating to strong activity comprising more than 70% of the cells) | 0 | 0 | 0 | IC50 (HeLa; Homo sapiens): 0.1 to 1 µM |
| COc1cc2nc(-c3nonc3N)n(CC(=O)c3ccccc3)c2cc1OC [Example 113] | > 1 |  | 0 | 0 | 0 | 0 | 0 | 0 | 0 | 0 | 0 | 0 | 0 | 0 | 0 | 0 | 0 | 0 | 0 | 0 | IC50 (MRC5): > 1 µM; IC50 (Jurkat): > 1 µM; IC50 (HT1080): > 1 µM |

More lines, main results first:

| IC50 (HeLa) [µM] | SMILES | IC50 (Jily) [µM] | Hoechst 33342 nuclear staining score ([1]; H460, conc 0.01 μm) | Hoechst 33342 nuclear staining score ([1]; H460, conc 0.1 μm) | Hoechst 33342 nuclear staining score ([1]; H460, conc 1 μm) | Hoechst 33342 nuclear staining score ([1]; HeLa, conc 0.01 μm) | Hoechst 33342 nuclear staining score ([1]; HeLa, conc 0.1 μm) | Hoechst 33342 nuclear staining score ([1]; HeLa, conc 1 μm) | Hoechst 33342 nuclear staining score ([1]; Jily, conc 0.01 μm) | Hoechst 33342 nuclear staining score ([1]; Jily, conc 0.1 μm) | Hoechst 33342 nuclear staining score ([1]; Jily, conc 1 μm) | Hoechst 33342 nuclear staining score ([1]; Jurkat, conc 0.01 μm) | Hoechst 33342 nuclear staining score ([1]; Jurkat, conc 0.1 μm) | Hoechst 33342 nuclear staining score ([1]; Jurkat, conc 1 μm) | Hoechst 33342 nuclear staining score ([1]; MRC5, conc 0.01 μm) | Hoechst 33342 nuclear staining score ([1]; MRC5, conc 0.1 μm) | Hoechst 33342 nuclear staining score ([1]; MRC5, conc 1 μm) | Hoechst 33342 nuclear staining score ([1]; PBLs, conc 0.01 μm) | Hoechst 33342 nuclear staining score ([1]; PBLs, conc 0.1 μm) | Hoechst 33342 nuclear staining score ([1]; PBLs, conc 1 μm) | also measured |
| --- | --- | --- | --- | --- | --- | --- | --- | --- | --- | --- | --- | --- | --- | --- | --- | --- | --- | --- | --- | --- | --- |
| 0.01 to 0.1 | Cc1ccc(C(=O)Cn2c(-c3nonc3N)nc3ccccc32)cc1C [Example 53] | 0.01 to 0.1 | 0 | 2 (score 2 relating to strong activity comprising more than 70% of the cells) | 2 (score 2 relating to strong activity comprising more than 70% of the cells) | 0 | 2 (score 2 relating to strong activity comprising more than 70% of the cells) | 2 (score 2 relating to strong activity comprising more than 70% of the cells) | 0 | 2 (score 2 relating to strong activity comprising more than 70% of the cells) | 2 (score 2 relating to strong activity comprising more than 70% of the cells) | 2 (score 2 relating to strong activity comprising more than 70% of the cells) | 2 (score 2 relating to strong activity comprising more than 70% of the cells) | 2 (score 2 relating to strong activity comprising more than 70% of the cells) | 1 (1 relating to weak activity comprising less than 70% of the cells) | 2 (score 2 relating to strong activity comprising more than 70% of the cells) | 2 (score 2 relating to strong activity comprising more than 70% of the cells) | 0 | 0 | 0 |  |
| 0.01 to 0.1 | Cc1ccc(C(=O)Cn2c(-c3nonc3NCCCO)nc3ccccc32)cc1C [Example 52] | 0.01 to 0.1 | 0 | 1 (1 relating to weak activity comprising less than 70% of the cells) | 2 (score 2 relating to strong activity comprising more than 70% of the cells) | 0 | 2 (score 2 relating to strong activity comprising more than 70% of the cells) | 2 (score 2 relating to strong activity comprising more than 70% of the cells) | 0 | 2 (score 2 relating to strong activity comprising more than 70% of the cells) | 2 (score 2 relating to strong activity comprising more than 70% of the cells) | 0 | 2 (score 2 relating to strong activity comprising more than 70% of the cells) | 2 (score 2 relating to strong activity comprising more than 70% of the cells) | 0 | 2 (score 2 relating to strong activity comprising more than 70% of the cells) | 2 (score 2 relating to strong activity comprising more than 70% of the cells) | 0 | 0 | 0 |  |
